# From patent publication EP0565593B1, “REDUCING PESTICIDAL INTERACTIONS IN CROPS” (priority 1990, dated 1992)
# Several values for one entry are separate records, joined by “and”; a condition that tells them apart may be missing. Equal values may be shown once.
# Tests used:
# Giant foxtail (GIFT) [1] = assay: whole plant or invertebrate; format: in vivo
# Velvetleaf (VELE) [2] = assay: Greenhouse test Procedure VI (Examples 59-61; Tables 58-60); format: in vivo, Abutilon theophrasti; details: Antidote + Biocide No. 1 in furrow
# Description: (§1) This procedure describes interaction among herbicide, biocide and antidote when the herbicide is incorporated in a soil cover layer and the biocide and the antidote are applied in a soil furrow containing crop seed before emergence of the crop. The soil and seeding depth were described in Procedure IV. A first container was designated as an untreated control, a second container was designated as a herbicide control, a third container was designated as a herbicide + biocide control and a fourth container as a herbicide + biocide + antidote test container. The biocide and antidote were formulated as granules. The biocide was applied to the soil furrows of the third and fourth containers at an application rate of 1.1 mg of active compound per cm of row. The antidote was applied to the soil furrow of the fourth container at an application rate of 0.37 mg of active compound per cm of row. A measured amount of the herbicide dispersed or dissolved in acetone was applied to a measured quantity of soil. The quantity of soil treated with the herbicide was thoroughly mixed to incorporate the herbicide. Samples of this soil were used to cover the seed beds of the second, third and fourth containers. For each test series, the seed bed of the first container was likewise covered by a soil layer not treated with herbicide and without biocide or antidote in the soil furrow.
# (§2) The containers were then placed on a bench in a greenhouse. Watering was by subirrigation plus overhead irrigation after the plants emerged. All treatments were run in duplicate. Plant response was observed according to Procedure IV. Variations in this procedure will be noted in the examples.
# (§3) The procedure used in this example involved the PPI application of biocide and safener as described in general Procedure VI above. The "primary" herbicide in this test was MON-12000 (Herbi-cide No. 1) in admixture with other herbicides designated as "co-herbicides", which included LASSO® (co-herbicide B); DUAL® (C); acetochlor (A); EPTAM® (D); butylate (E) and PURSUIT® (K).
# (§4) The in-furrow treatments with blended COUNTER 15G and antidote mixtures was as described in above examples. MON-12000 and the co-herbicides were formulated in acetone and applied as tank mixtures, incorporated into Dupo silt loam soil with a rotary drum mixer. Subsamples were used to cover seeded and in-furrow treated 10.2 cm pots. Pots were placed on greenhouse benches and subirrigated. Plant responses were observed thirteen days after PPI initiation. Test results (average of two replications) are shown in Table 58, wherein giant foxtail (GIFT) was used in place of shattercane.
# (§5) This test was conducted in the same manner used in Example 59. All biocide and antidote components were the same and in these tests XRD-498 (Herbicide No. 21) was the prime herbicide. Co-herbicides are shown in Table 59 together with test data.
# (§6) In one other test conducted as described in the preceding examples in this series of tests, the herbicide PURSUIT® was used as the primary herbicide (in the context of this invention) together with the same insecticide and safeners as above and the co-herbicides shown in Table 60, together with test results.
# Giant foxtail (GIFT) [3] = assay: as above; format: in vivo; details: Antidote + Biocide No. 1 in furrow
# Description: as §1, §2, §3, §4, §5, §6
# Velvetleaf (VELE) [4] = assay: Multi-crop greenhouse test, soil-applied (Examples 65, 66; Tables 64, 65); format: in vivo, Abutilon theophrasti
# Protocol: Tests according to this invention in various crops indicate widespread application of the invention. In Examples 62-66 below are described tests with a variety of herbicides contacted with COUNTER® 15G in the presence and absence of MON-7400 (Antidote No. 12); MON-13900 (No. 1); MON-4660 (No. 16) and flurazole (No. 16). Those tests were conducted according to Procedures IV or V described above and illustrated further in other foregoing examples. Plants used in all tests were, for crops (as abbreviated in parentheses); cotton (COTT); soybean (SOBE); CORN, grain sorghum (GRSO); wheat (WHEA) and RICE, and the weeds giant foxtail (GIFT) and velvetleaf (VELE). The data in the tables below represent averages of two replications.
# In this test the crops and weeds were planted 1.3 cm deep in 13.7 cm X 27.7 cm pans containing Dupo silt loam soil. The test safeners were applied in acetone solution and COUNTER 15G as dry granules to soil cover layers and incorporated by shaking in a bag. Treated cover layers were placed on seeded pans which were transferred to greenhouse benches and subirrigated. Herbicide was applied POE six (6) days after PPI initiation and observations of plant injury made ten (10) days later; results are shown in Table 61. The herbicide used in this example was BEACON (No. 8).
# In another test in the several crops and weeds used in this test series, the herbicidal component was MON-12000 (No. 1); the other components were the same. the procedure used in this test was the same as that described in Example 62, modified to use a light overhead irrigation (about 0.32 cm/day) during days 4-7 of the test. Table 64 […]
# [5] = Herbicide No. 11 0.0044 Kg/Ha PPI
# [6] = Herbicide No. 12 0.0044 Kg/Ha PPI
# [7] = Herbicide No. 13 0.0011 Kg/Ha PPI
# [8] = Herbicide No. 13 0.0022 Kg/Ha PPI
# [9] = Herbicide No. 14 0.07 Kg/Ha PPI
# [10] = Herbicide No. 16 0.07 Kg/Ha PPI, 13 days
# [11] = Herbicide No. 17 0.14 Kg/Ha PPI, 13 days
# [12] = Herbicide No. 18 0.04 Kg/Ha PPI, 13 days
# [13] = Herbicide No. 20 1.12 Kg/Ha PPI, 13 days
# [14] = Herbicide No. 22 0.28 Kg/Ha PPI, 13 days
# [15] = Herbicide No. 24 0.14 Kg/Ha PPI, 13 days
# [16] = Herbicide No. 25 0.14 Kg/Ha PPI, 13 days
# [17] = Herbicide No. 26 2.24 Kg/Ha PPI, 13 days
# [18] = Herbicide No. 28 0.04 Kg/Ha PPI, 13 days
compound,measurement,setting,value
CC1(C)OC(c2ccco2)CN1C(=O)C(Cl)Cl (centres unmarked) [compound 1],% Inhibition GIFT,"Giant foxtail (GIFT) [1]; […], PPI, 13 days after PPI (Table 31)",70%
same,% Inhibition GIFT,Giant foxtail (GIFT) [1]; in vivo,45% and 60% and 85% and 65% and 90% and 55%
same,% Inhibition VELE,Velvetleaf (VELE) [2]; Herbicide No. 6 0.14 Kg/Ha PPI,70%
same,% Inhibition VELE,Velvetleaf (VELE) [2]; [5],75%
same,% Inhibition VELE,Velvetleaf (VELE) [2]; [6],55%
same,% Inhibition VELE,Velvetleaf (VELE) [2]; [7],25%
same,% Inhibition VELE,Velvetleaf (VELE) [2]; [8],60%
same,% Inhibition VELE,Velvetleaf (VELE) [2]; [9],85%
same,% Inhibition VELE,Velvetleaf (VELE) [2]; [10],60%
same,% Inhibition VELE,Velvetleaf (VELE) [2]; [11],80%
same,% Inhibition VELE,Velvetleaf (VELE) [2]; [12],50%
same,% Inhibition VELE,Velvetleaf (VELE) [2]; [13],95%
same,% Inhibition VELE,Velvetleaf (VELE) [2]; [14],80%
same,% Inhibition VELE,Velvetleaf (VELE) [2]; [15],90%
same,% Inhibition VELE,Velvetleaf (VELE) [2]; [16],75%
same,% Inhibition VELE,Velvetleaf (VELE) [2]; [17],65%
same,% Inhibition VELE,Velvetleaf (VELE) [2]; [18],90%
same,% Inhibition GIFT,Giant foxtail (GIFT) [3]; Herbicide No. 6 0.14 Kg/Ha PPI,65%
same,% Inhibition GIFT,Giant foxtail (GIFT) [3]; [5],0%
same,% Inhibition GIFT,Giant foxtail (GIFT) [3]; [6],0%
same,% Inhibition GIFT,Giant foxtail (GIFT) [3]; [7],25%
same,% Inhibition GIFT,Giant foxtail (GIFT) [3]; [8],35%
same,% Inhibition GIFT,Giant foxtail (GIFT) [3]; [9],0%
same,% Inhibition GIFT,Giant foxtail (GIFT) [3]; [10],30%
same,% Inhibition GIFT,Giant foxtail (GIFT) [3]; [11],75%
same,% Inhibition GIFT,Giant foxtail (GIFT) [3]; [12],55%
same,% Inhibition GIFT,Giant foxtail (GIFT) [3]; [13],20%
same,% Inhibition GIFT,Giant foxtail (GIFT) [3]; [14],25%
same,% Inhibition GIFT,Giant foxtail (GIFT) [3]; [15],10%
same,% Inhibition GIFT,Giant foxtail (GIFT) [3]; [16],30%
same,% Inhibition GIFT,Giant foxtail (GIFT) [3]; [17],0%
same,% Inhibition GIFT,Giant foxtail (GIFT) [3]; [18],50%
same,% Inhibition VELE,"Velvetleaf (VELE) [4]; Table 64, Herb. No. 1 0.018 Kg/Ha + Biocide No. 1 8.96 Kg/Ha + Antidote 4.48 Kg/Ha",65%
same,% Inhibition VELE,"Velvetleaf (VELE) [4]; Table 64, Herb. No. 1 0.07 Kg/Ha + Biocide No. 1 8.96 Kg/Ha + Antidote 4.48 Kg/Ha",85%
same,% Inhibition VELE,"Velvetleaf (VELE) [4]; Table 64, Herb. No. 1 0.28 Kg/Ha + Biocide No. 1 8.96 Kg/Ha + Antidote 4.48 Kg/Ha",95%
same,% Inhibition VELE,"Velvetleaf (VELE) [4]; Table 65, Herb. No. 1 0.018 Kg/Ha + Biocide No. 1 8.96 Kg/Ha + Antidote 4.48 Kg/Ha",10%
same,% Inhibition VELE,"Velvetleaf (VELE) [4]; Table 65, Herb. No. 1 0.07 Kg/Ha + Biocide No. 1 8.96 Kg/Ha + Antidote 4.48 Kg/Ha",75%
same,% Inhibition VELE,"Velvetleaf (VELE) [4]; Table 65, Herb. No. 1 0.28 Kg/Ha + Biocide No. 1 8.96 Kg/Ha + Antidote 4.48 Kg/Ha",90%
